ChEMBL document CHEMBL1255306, “Potential basis for amphotericin B resistance in Aspergillus terreus” (2008)
Values after ≈ are worked out from the molar mass of the structure shown. Active and inactive are the calls of the source. No cut-off for these calls is given here.

How the values were obtained:
Aspergillus terreus [1] = assay: Antimicrobial activity against AMB-resistant Aspergillus terreus assessed as catalase activity after 24 to 48 hrs; format: functional, organism-based
Aspergillus fumigatus [2] = assay: Antimicrobial activity against […] Aspergillus fumigatus assessed as catalase activity after 24 to 48 hrs; format: functional, organism-based
Aspergillus terreus [3] = assay: Antimicrobial activity against AMB-resistant Aspergillus terreus assessed as high malonaldehyde activity at 5 ug/ml after 8 hrs by thiobarbituric acid test; format: functional, organism-based
Aspergillus terreus [4] = assay: Antimicrobial activity against Aspergillus terreus protoplast by CLSI M38-A broth microdilution method; format: functional
Aspergillus fumigatus [5] = assay: Antimicrobial activity against […] Aspergillus fumigatus assessed as high malonaldehyde activity at 5 ug/ml after 8 hrs by thiobarbituric acid test; format: functional, organism-based
Aspergillus terreus [6] = assay: Antimicrobial activity against Aspergillus terreus conidia by CLSI M38-A broth microdilution method; format: functional
Aspergillus fumigatus [7] = assay: Antimicrobial activity against […] Aspergillus fumigatus assessed as high malonaldehyde activity at 10 ug/ml after 8 hrs by thiobarbituric acid test; format: functional, organism-based
Aspergillus terreus [8] = assay: Antimicrobial activity against AMB-resistant Aspergillus terreus assessed as high malonaldehyde activity at 10 ug/ml after 8 hrs by thiobarbituric acid test; format: functional, organism-based

## C[C@@H]1[C@H](O)[C@@H](C)/C=C/C=C/C=C/C=C/C=C/C=C/C=C/[C@H](O[C@@H]2O[C@H](C)[C@@H](O)[C@H](N)[C@@H]2O)C[C@@H]2O[C@](O)(C[C@@H](O)C[C@@H](O)[C@H](O)CC[C@@H](O)C[C@@H](O)CC(=O)O[C@H]1C)C[C@H](O)[C@H]2C(=O)O [AMPHOTERICIN B]
Aspergillus terreus [1]
  Activity: Active
Aspergillus fumigatus [2]
  Activity: inactive
Aspergillus terreus [3]
  Activity: Active
Aspergillus terreus [4]
  MIC: 1.41 µg/mL (≈ 1.53 µM)
Aspergillus fumigatus [5]
  Activity: Active
Aspergillus terreus [6]
  MIC: 1.7 µg/mL (≈ 1.84 µM)
Aspergillus fumigatus [7]
  Activity: Active
Aspergillus terreus [8]
  Activity: Active
